Patent US20180064710A1, “ANTIFUNGAL TREATMENT OF PSORIASIS” (Gerbe Labs Inc., priority 2016, published 2018)
Where two headings read alike, the source gives them in different places.

Legend:
Assay type in all cases: cell-based
[1] = test system: S. aureus, a gram negative bacteria; assay: Culture sensitivity, Patient 7 bacterial isolate; conditions: Patient 7 culture
Source text: (§1) The patient underwent the standard workup for CRS, sleep disorder, and nasal obstruction, plus our diagnostic skin test and sinus CT scan.

[2] = test system: Aspergillus fumigatus + Candida albicans co-culture; assay: Broth microdilution MIC assay, co-culture of spores 1:1
Description: Broth Microdilution Minimal Inhibitory Concentration (MIC) assays were performed to obtain the MIC values for Itraconazole and Ketoconazole with an antibiotic (Vancomycin or Tobramycin or Amikacin) against the two fungal strains.
The strains were maintained as a frozen glycerol stocks at −80° C. The fungal strains were prepared by thawing a glycerol stock, streaking and growing onto Sabouraud's Dextrose Agar (SDA) plates, overnight at 35±2° C. in aerobic conditions and used for the assay.
The completely synthetic medium RPMI-1640 (with glutamine, without bicarbonate, and with phenol red as a pH indicator) was buffered with 0.165 mol/L MOPS (3-[N-morpholino] propanesulfonic acid) buffer was used as the growth medium for the fungal strains. Overnight cultures of the fungal strains were grown on Difco™ Sabouraud's Dextrose Agar (SDA) plates at 35° C. To induce conidium and sporangiospore formation, the culture plates were transferred to incubator and grown for 5-7 days 30° C. or until good sporulation was obtained. Approximately, 10 mL of 0.85% saline containing 0.01% of Tween 80 was used to poured on to the agar plate containing conidia or sporangiospores and hyphal fragments. The suspension containing conidia or sporangiospores and hyphal fragments was aspirated and transferred to a sterile tube. This mixture was filtered to separate the spores from the vegetative cells of the fungi. The supernatant containing only fungal spores was used for all the assays. Fungal spore inoculum was prepared in RPMI-1640 (with glutamine, without bicarbonate, and with phenol red as a pH indicator) was buffered with 0.165 mol/L MOPS (3-[N-morpholino] propanesulfonic acid) buffer to a final density of 10^6 CFU/mL using a hemocytometer.
Each MIC assay included 11 2-fold serial dilutions of the antifungal agents. Test concentrations for the test articles were tested at the following concentrations: 64 μg/mL, 32 μg/mL, 16 μg/mL, 8 μg/mL, 4 μg/mL, 2 μg/mL, 1 μg/mL, 0.5 μg/mL, 0.25 μg/mL, 0.125 μg/mL, and 0.0625 μg/mL. Broth microdilution assays were performed according to the procedures detailed in CLSI document M38-A2 (CLSI, 2008). Briefly, 2× stock solutions of test articles were prepared at 128 μg/mL. A two-fold serial dilution of the stock solution were performed. Diluted stock solutions of the fungal spores were adjusted (to be equivalent to 10^6 CFU/mL). 1× final concentration of the antifungals was obtained when they were combined with the fungal spore broth in the microtiter plate. Plates were incubated for 3-5 days at 35±2° C. in an ambient air incubator. MIC values recorded are the minimum concentration of the test articles that inhibits growth as observed by unaided eye. The MIC values was expressed in μg/mL. The assay was carried out in duplicates.

Candida albicans = assay: Culture sensitivity, Patient 7 fungal isolate; conditions: Patient 7 culture
Source text: as §1

[3] = A. fumigatus + C. albicans co-culture, repeated MIC study (Table 4), agent alone, read-out: MIC

Structure (SMILES)	Sensitivity of cultured bacteria [1]	MIC ([2]; A. fumigatus + C. albicans co-culture 1:1, first study (Table 3), read-out: MIC) [µg/mL]	MIC ([2]; A. fumigatus + C. albicans co-culture, repeated MIC study (Table 4), agent alone, listed as Itraconazone) [µg/mL]	MIC [2, 3] [µg/mL]	Sensitivity of cultured Candida albicans (Candida albicans)
NC[C@H]1O[C@H](O[C@H]2[C@H](O)[C@@H](O[C@H]3O[C@H](CO)[C@@H](O)[C@H](N)[C@H]3O)[C@H](N)C[C@@H]2N)[C@H](N)C[C@@H]1O [tobramycin]	sensitive	–	–	–	–
CCC(C)n1ncn(-c2ccc(N3CCN(c4ccc(OCC5COC(Cn6cncn6)(c6ccc(Cl)cc6Cl)O5)cc4)CC3)cc2)c1=O (stereo not drawn) [Itraconazole]	–	0.5	1	1	–
CC(=O)N1CCN(c2ccc(OCC3COC(Cn4ccnc4)(c4ccc(Cl)cc4Cl)O3)cc2)CC1 (stereo not drawn) [Ketoconazole]	–	–	–	8	sensitive
